The target in one assay is human recombinant PLK4 (Homo sapiens (Human), UniProt O00444). Kind of assay: PLK4 Biochemical Assay (ADP-Glo). The note with it: 0.5 nM PLK4, 8.0 µM ATP, 4.7 µM MBP, 6 hours at RT. The essentials:
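Luminescent ADP-Glo detection quantified ADP production, with ATP depletion for 40 min and detection for 30 min at room temperature. Compound and PLK4 (1.0 nM stock addition) were preincubated 15 min in HEPES pH 7.5 buffer containing MgCl2, EGTA, DTT, Brij-35 and BSA. IC50 values were obtained by four-parameter nonlinear regression.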
(In ADP-Glo the light output rises with the ADP produced.)

The test system of a further assay is CHP-134 cells. Kind of assay: CHP134 CellTiter-Glo (CTG) Assay. The class given is cell-based. The note with it: Homo sapiens, CHP-134, 120 h, 5 days, viable cells by CellTiter-Glo. The essentials:
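Nine-point 1:3 dilution series, diluted into growth media, added in quadruplicate to CHP-134 cells plated 16 h earlier at 200 cells/well.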
(In general: ATP-based viability assays read luminescence as a measure of living cells.)

The target in assay [1] is human recombinant Aurora A (Homo sapiens (Human), UniProt O14965). Kind of assay: Aurora A Kinase Biochemical Assay (ADP-Glo). Particulars: ratio of Aurora A IC50 to PLK4 IC50 (selectivity).
Sequence of human recombinant Aurora A (O14965 whole entry): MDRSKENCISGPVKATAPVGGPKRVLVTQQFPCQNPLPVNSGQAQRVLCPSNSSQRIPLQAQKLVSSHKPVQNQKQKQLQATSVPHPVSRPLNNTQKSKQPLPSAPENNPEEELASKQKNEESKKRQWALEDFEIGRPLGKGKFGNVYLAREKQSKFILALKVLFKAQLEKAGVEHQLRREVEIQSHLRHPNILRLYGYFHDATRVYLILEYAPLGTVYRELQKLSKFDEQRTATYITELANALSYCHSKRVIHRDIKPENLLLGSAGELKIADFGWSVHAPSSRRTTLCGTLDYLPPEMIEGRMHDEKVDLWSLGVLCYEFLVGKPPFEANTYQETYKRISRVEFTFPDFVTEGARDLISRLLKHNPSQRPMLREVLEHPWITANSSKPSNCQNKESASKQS
Assay [2] concerns the target human recombinant Aurora B (Homo sapiens (Human), UniProt Q96GD4). Nature of the assay: Aurora B Kinase Biochemical Assay (ADP-Glo). The note with it: ratio of Aurora B IC50 to PLK4 IC50 (selectivity). The essentials: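 IC50 derived by four-parameter nonlinear fit of ADP-Glo luminescence (ADP produced). Compound was preincubated 15 min at RT with 20 nM recombinant human Aurora B, in 50 mM HEPES pH 7.5, 10 mM MgCl2, 1 mM EGTA, 1 mM DTT, 0.01% Brij-35/BSA.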

Sequence of human recombinant Aurora B (Q96GD4 whole entry): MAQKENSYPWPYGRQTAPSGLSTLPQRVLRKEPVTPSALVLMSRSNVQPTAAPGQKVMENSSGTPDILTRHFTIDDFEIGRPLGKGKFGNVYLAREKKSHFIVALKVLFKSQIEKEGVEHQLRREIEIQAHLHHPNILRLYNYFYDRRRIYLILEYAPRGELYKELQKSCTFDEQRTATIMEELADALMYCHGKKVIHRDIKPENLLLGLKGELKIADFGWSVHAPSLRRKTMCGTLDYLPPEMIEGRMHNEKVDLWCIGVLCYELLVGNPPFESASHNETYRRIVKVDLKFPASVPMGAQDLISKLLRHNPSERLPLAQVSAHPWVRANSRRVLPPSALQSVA
Sequence of human recombinant PLK4 (O00444 whole entry): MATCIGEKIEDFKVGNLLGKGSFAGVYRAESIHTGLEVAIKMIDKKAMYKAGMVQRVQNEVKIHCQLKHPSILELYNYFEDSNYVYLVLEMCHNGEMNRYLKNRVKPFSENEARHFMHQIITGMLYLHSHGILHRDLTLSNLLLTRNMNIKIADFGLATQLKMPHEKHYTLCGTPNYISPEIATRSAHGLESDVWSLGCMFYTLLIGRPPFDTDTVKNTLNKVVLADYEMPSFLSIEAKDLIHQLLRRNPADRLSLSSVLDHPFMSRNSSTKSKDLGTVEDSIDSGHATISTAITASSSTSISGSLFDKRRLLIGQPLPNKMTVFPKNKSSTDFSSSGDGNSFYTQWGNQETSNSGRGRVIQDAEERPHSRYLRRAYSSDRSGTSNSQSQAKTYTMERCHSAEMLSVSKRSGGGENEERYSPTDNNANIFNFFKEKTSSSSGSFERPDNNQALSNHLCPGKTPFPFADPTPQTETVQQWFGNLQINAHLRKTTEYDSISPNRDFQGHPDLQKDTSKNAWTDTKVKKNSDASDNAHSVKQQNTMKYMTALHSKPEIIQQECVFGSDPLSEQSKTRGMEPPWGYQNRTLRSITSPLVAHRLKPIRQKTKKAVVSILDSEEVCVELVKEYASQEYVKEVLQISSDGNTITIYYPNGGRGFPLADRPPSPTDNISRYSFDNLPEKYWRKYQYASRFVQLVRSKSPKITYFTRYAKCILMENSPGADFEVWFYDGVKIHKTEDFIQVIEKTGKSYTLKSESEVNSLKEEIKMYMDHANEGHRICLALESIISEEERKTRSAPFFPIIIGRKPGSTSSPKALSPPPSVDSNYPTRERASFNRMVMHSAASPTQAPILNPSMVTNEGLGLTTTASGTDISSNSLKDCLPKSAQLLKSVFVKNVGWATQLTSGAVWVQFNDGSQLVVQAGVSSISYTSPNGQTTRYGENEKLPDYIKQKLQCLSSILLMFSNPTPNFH

A word on the IC50: it is the concentration at which inhibition is half-maximal. For the compound `COc1ccc2c(c1)[C@]1(C[C@H]1c1ccc3c(Nc4ncc(S(C)(=O)=O)cc4OC)n[nH]c3c1)C(=O)N2` [Example 193, (1R,2S)-2-(3-{[5-(methanesulfonyl)-3-methoxypyridin-2-yl]amino}-1H-indazol-6-yl)-5′-methoxyspiro[cyclopropane-1,3′-indol]-2′(1′H)-one], the IC50 was found to be 1.13 nM on human recombinant PLK4 and 390 nM in the assay on CHP-134 cells. For the same compound, the “[Aurora A IC50 (nM)]/[PLK4 IC50 (nM)]” value in assay [1] was 1463.8448. The “[Aurora B IC50 (nM)]/[PLK4 IC50 (nM)]” value in assay [2] is recorded as 138.8889.

On to `COc1ccc2c(c1)[C@]1(C[C@H]1c1ccc3c(Nc4ccc(C(=O)N(C)C(C)C)nc4OC)n[nH]c3c1)C(=O)N2` [Example 194, 6-methoxy-5-({6-[(1R,2S)-5′-methoxy-2′-oxo-1’,2′-dihydrospiro[cyclopropane-1,3′-indol]-2-yl]-1H-indazol-3-yl}amino)-N-methyl-N-(propan-2-yl)pyridine-2-carboxamide], for which the figures for the 50% inhibitory concentration (IC50) on human recombinant PLK4 and in the assay with CHP-134 cells were 0.965 nM and 126 nM, respectively. In assay [1], the “[Aurora A IC50 (nM)]/[PLK4 IC50 (nM)]” value turned out to be 805.6995. The “[Aurora B IC50 (nM)]/[PLK4 IC50 (nM)]” value in assay [2] is 103.7306.

Consider `CCOc1cnc(SC)nc1Nc1n[nH]c2cc([C@@H]3C[C@@]34C(=O)Nc3ccc(OC)cc34)ccc12` [Example 195, (1R,2S)-2-(3-{[5-ethoxy-2-(methylsulfanyl)pyrimidin-4-yl]amino)-1H-indazol-6-yl)-5′-methoxyspiro[cyclopropane-1,3′-indol]-2′(1′H)-one], for which the IC50 was determined as 1.56 nM at human recombinant PLK4 and 160 nM in the assay on CHP-134 cells. Also, the “[Aurora A IC50 (nM)]/[PLK4 IC50 (nM)]” value in assay [1] was determined as 3459.6154. Besides, the “[Aurora B IC50 (nM)]/[PLK4 IC50 (nM)]” value in assay [2] amounted to 740.3846.

Turning to `COc1ccc2c(c1)[C@]1(C[C@H]1c1ccc3c(Nc4nc(S(C)(=O)=O)ccc4OC)n[nH]c3c1)C(=O)N2` [Example 196, (1R,2S)-2-(3-{[6-(methanesulfonyl)-3-methoxypyridin-2-yl]amino}-1H-indazol-6-yl)-5′-methoxyspiro[cyclopropane-1,3′-indol]-2′(1′H)-one], the figures for the IC50 on human recombinant PLK4 and in the assay with CHP-134 cells were 3.32 nM and 1670 nM, respectively. Moreover, in assay [1], the “[Aurora A IC50 (nM)]/[PLK4 IC50 (nM)]” value turned out to be 732.3689. Also, the “[Aurora B IC50 (nM)]/[PLK4 IC50 (nM)]” value in assay [2] is given as 100.8137.

In the case of `COc1ccc2c(c1)[C@]1(C[C@H]1c1ccc3c(Nc4ncc(C(=O)N(C)C)cc4OC)n[nH]c3c1)C(=O)N2` [Example 197, 5-methoxy-6-({6-[(1R,2S)-5′-methoxy-2′-oxo-1′,2′-dihydrospiro[cyclopropane-1,3′-indol]-2-yl]-1H-indazol-3-yl}amino)-N,N-dimethylpyridine-3-carboxamide], the IC50 at human recombinant PLK4 turned out to be 1.08 nM; in the assay with CHP-134 cells, 1080 nM. In addition, in assay [1], the “[Aurora A IC50 (nM)]/[PLK4 IC50 (nM)]” value is 1243.4944. The “[Aurora B IC50 (nM)]/[PLK4 IC50 (nM)]” value in assay [2] was found to be 73.8197.

Regarding `COc1ccc2c(c1)[C@]1(C[C@H]1c1ccc3c(Nc4cc(C(=O)N(C)C)ncc4OC)n[nH]c3c1)C(=O)N2` [Example 198, 5-methoxy-4-({6-[(1R,2S)-5′-methoxy-2′-oxo-1′,2′-dibydrospiro[cyclopropane-1,3′-indol]-2-yl]-1H-indazol-3-yl}amino)-N,N-dimethylpyridine-2-carboxamide], the concentration for half-maximal inhibition (IC50) stood at 8.69 nM on human recombinant PLK4 and 10000 nM in the assay with CHP-134 cells. In addition, the “[Aurora A IC50 (nM)]/[PLK4 IC50 (nM)]” value in assay [1] turned out to be 5752.4160. Also, in assay [2], the “[Aurora B IC50 (nM)]/[PLK4 IC50 (nM)]” value was found to be 5752.4160.

On to `COc1ccc2c(c1)[C@]1(C[C@H]1c1ccc3c(Nc4ccc(C(=O)N5CCOCC5)cc4OC)n[nH]c3c1)C(=O)N2` [Example 199, (1R,2S)-5′-methoxy-2-{3-[2-methoxy-4-(morpholine-4-carbonyl)anilino]-1H-indazol-6-yl}spiro[cyclopropane-1,3′-indol]-2′(1′H)-one], for which the half-maximal inhibitory concentration (IC50) was 0.716 nM on human recombinant PLK4 and 108 nM in the assay with CHP-134 cells. Besides, in assay [1], the “[Aurora A IC50 (nM)]/[PLK4 IC50 (nM)]” value was found to be 439.9441. Besides, the “[Aurora B IC50 (nM)]/[PLK4 IC50 (nM)]” value in assay [2] is 57.7095.

In the case of `CCOc1nc(S(C)(=O)=O)ccc1Nc1n[nH]c2cc([C@@H]3C[C@@]34C(=O)Nc3ccc(OC)cc34)ccc12` [Example 202, (1R,2S)-2-(3-{[2-ethoxy-6-(methanesulfonyl)pyridin-3-yl]amino}-1H-indazol-6-yl)-5′-methoxyspiro[cyclopropane-1,3′-indol]-2′(1′H)-one], the concentration for half-maximal inhibition (IC50) at human recombinant PLK4 was 2.68 nM; in the assay with CHP-134 cells it was 422 nM. Besides, in assay [1], the “[Aurora A IC50 (nM)]/[PLK4 IC50 (nM)]” value is given as 1031.3433. In addition, in assay [2], the “[Aurora B IC50 (nM)]/[PLK4 IC50 (nM)]” value turned out to be 321.4179.

As for `CCOc1cc(C(=O)N(C)C)cnc1Nc1n[nH]c2cc([C@@H]3C[C@@]34C(=O)Nc3ccc(OC)cc34)ccc12` [Example 203, 5-ethoxy-6-({6-[(1R,2S)-5′-methoxy-2′-oxo-1’,2′-dihydrospiro[cyclopropane-1,3′-indol]-2-yl]-1H-indazol-3-yl}amino)-N,N-dimethylpyridine-3-carboxamide], the half-inhibitory concentration (IC50) on human recombinant PLK4 is 1.04 nM; with CHP-134 cells, 324 nM. The “[Aurora A IC50 (nM)]/[PLK4 IC50 (nM)]” value in assay [1] is 2922.2649. For the same compound, the “[Aurora B IC50 (nM)]/[PLK4 IC50 (nM)]” value in assay [2] was found to be 333.7812.

For `COc1ccc2c(c1)[C@]1(C[C@H]1c1ccc3c(Nc4ncc(S(=O)(=O)N(C)C)cc4OC)n[nH]c3c1)C(=O)N2` [Example 204, 5-methoxy-6-({6-[(1R,2S)-5′-methoxy-2′-oxo-1’,2′-dihydrospiro[cyclopropane-1,3′-indol]-2-yl]-1H-indazol-3-yl}amino)-N,N-dimethylpyridine-3-sulfonamide], the half-inhibitory concentration (IC50) is 0.81 nM at human recombinant PLK4 and 122 nM in the assay on CHP-134 cells. For the same compound, the “[Aurora A IC50 (nM)]/[PLK4 IC50 (nM)]” value in assay [1] was 342.9630. Moreover, the “[Aurora B IC50 (nM)]/[PLK4 IC50 (nM)]” value in assay [2] was determined as 222.8395.

As for `COc1ccc2c(c1)[C@]1(C[C@H]1c1ccc3c(Nc4ccc(P(C)(C)=O)nc4OC)n[nH]c3c1)C(=O)N2` [Example 205, (1R,2S)-2-(3-{[6-(dimethylphosphoryl)-2-methoxypyridin-3-yl]amino}-1H-indazol-6-yl)-5′-methoxyspiro[cyclopropane-1,3′-indol]-2′(1′H)-one], the IC50 at human recombinant PLK4 was 1.64 nM; in the assay on CHP-134 cells it was 3440 nM. In assay [1], the “[Aurora A IC50 (nM)]/[PLK4 IC50 (nM)]” value was 737.5152. Further, in assay [2], the “[Aurora B IC50 (nM)]/[PLK4 IC50 (nM)]” value turned out to be 235.7491.

Turning to `CCOc1cc(S(C)(=O)=O)cnc1Nc1n[nH]c2cc([C@@H]3C[C@@]34C(=O)Nc3ccc(OC)cc34)ccc12` [Example 208, (1R,2S)-2-(3-{[3-ethoxy-5-(methanesulfonyl)pyridin-2-yl]amino}-1H-indazol-6-yl)-5′-methoxyspiro[cyclopropano-1,3′-indol]-2′(1′H)-one], the 50% inhibitory concentration (IC50) on human recombinant PLK4 worked out at 0.897 nM; with CHP-134 cells, 402 nM. For the same compound, in assay [1], the “[Aurora A IC50 (nM)]/[PLK4 IC50 (nM)]” value worked out at 7904. Moreover, the “[Aurora B IC50 (nM)]/[PLK4 IC50 (nM)]” value in assay [2] is given as 2471.

Turning to `CCS(=O)(=O)c1ccc(Nc2n[nH]c3cc([C@@H]4C[C@@]45C(=O)Nc4ccc(OC)cc45)ccc23)c(OC)n1` [Example 209, (1R,2S)-2-(3-{[6-(ethanesulfonyl)-2-methoxypyridin-3-yl]amino}-1H-indazol-6-yl)-5′-methoxyspiro[cyclopropane-1,3′-indol]-2′(1′H)-one], the IC50 on human recombinant PLK4 was 1.54 nM; in the assay with CHP-134 cells, 606 nM. Besides, in assay [1], the “[Aurora A IC50 (nM)]/[PLK4 IC50 (nM)]” value amounted to 273.2595. The “[Aurora B IC50 (nM)]/[PLK4 IC50 (nM)]” value in assay [2] is listed as 254.6519.

For `CNS(=O)(=O)c1cc(OC)c(Nc2n[nH]c3cc([C@@H]4C[C@@]45C(=O)Nc4ccc(OC)cc45)ccc23)cc1C` [Example 210, 5-methoxy-4-({6-[(1R,2S)-5′-methoxy-2′-oxo-1′,2′-dihydrospiro[cyclopropane-1,3′-indol]-2-yl]-1H-indazol-3-yl}amino)-N,2-dimethylbenzene-1-sulfonamide], the results for the IC50 at human recombinant PLK4 and in the assay with CHP-134 cells were 1.35 nM and 65.5 nM, respectively. For the same compound, the “[Aurora A IC50 (nM)]/[PLK4 IC50 (nM)]” value in assay [1] is given as 462.3887. In addition, the “[Aurora B IC50 (nM)]/[PLK4 IC50 (nM)]” value in assay [2] is on record as 316.5430.

With `COc1ccc2c(c1)[C@]1(C[C@H]1c1ccc3c(Nc4cc(OC)c(S(N)(=O)=O)cc4OC)n[nH]c3c1)C(=O)N2` [Example 212, 2,5-Dimethoxy-4-({6-[(1R,2S)-5′-methoxy-2′-oxo-l′,2′-dihydrospiro[cyclopropane-1,3′-indol]-2-yl]-1H-indazol-3-yl}amino)benzene-1-sulfonamide], the half-maximal inhibitory concentration (IC50) at human recombinant PLK4 amounted to 1.58 nM; in the assay with CHP-134 cells it was 161 nM. The “[Aurora A IC50 (nM)]/[PLK4 IC50 (nM)]” value in assay [1] is 353.1230. Further, the “[Aurora B IC50 (nM)]/[PLK4 IC50 (nM)]” value in assay [2] was found to be 280.

Consider `COc1ccc2c(c1)[C@]1(C[C@H]1c1ccc3c(Nc4nc(N(C)C)nc5c4CCC5)n[nH]c3c1)C(=O)N2` [Example 213, (1R,2S)-2-(3-{[2-(dimethylamino)-6,7-dihydro-5H-cyclopenta[d]pyrimidin-4-yl]amino}-1H-indazol-6-yl)-5′-methoxyspiro[cyclopropane-1,3′-indol]-2′(1′H)-one], for which the values for the IC50 at human recombinant PLK4 and with CHP-134 cells were 2.13 nM and 190 nM, respectively. Moreover, the “[Aurora A IC50 (nM)]/[PLK4 IC50 (nM)]” value in assay [1] came out at 92.2102. Further, the “[Aurora B IC50 (nM)]/[PLK4 IC50 (nM)]” value in assay [2] turned out to be 225.3871.

These data come from patent publication US20230365537A1, “POLO LIKE KINASE 4 INHIBITORS” (ORIC Pharmaceuticals, Inc., priority 2021, published 2023).
